A word on the Emax: it is the maximal effect, on the per cent scale that the assay sets.

We go through five molecules from PMC7927403, “Structure‐based identification of dual ligands at the A2AR and PDE10A with anti‐proliferative effects in lung cancer cell‐lines” (Journal of Cheminformatics, 2021).

Some results are limits rather than exact numbers.

Experiment [1] deals with H520 cells. Description: Proliferation assay (CCK-8) in H520 cells. Type of experiment: cell-based, human. The conditions noted are these: for Imax anti-proliferative effect: H520, 10 μM agonist relative to 1% DMSO treatment; for IC50: Homo sapiens, NCI-H520, H520, 72 hours, read-out: pIC50 anti-proliferative effect (converted). As for the experimental part: (§1) To test the effect of compounds 1–6 upon proliferation, various cell types were seeded onto clear 96-well plates at proper densities for each; CHO-K1 (2000 cells well^− 1), CHO-K1-A2AR (2000 cells well^− 1), H520 (2500 cells well^− 1), H1563 (2500 cells well^− 1), H1792 (2500 cells well^− 1), LK-2 (2500 cells well^− 1). This was done in suitable media, and they were cultured for 24 hours. After the subsequent addition of compounds 1–6 (ranging 316 nM − 100 µM), cells were allowed to grow further for 72 hours. Quantification of changes in cell number was done by adding 5 µl CCK-8 reagent to each well, accompanied by incubation at 37 °C for 1–3 hours. The determination of OD450 was done using a Mithras LB940 micro-plate reader at 450 nm.
(§2) Data analysis was performed using GraphPad Prism 8.2.1 (San Diegeo, CA). […] As for proliferation assays, the normalization of all data was done relative to the responses obtained upon treating cells with 1 % (v/v) DMSO. Subsequently, a three-parameter logistic equation was used for fitting each set of normalized data β-galactosidase or cAMP data, in order to calculate pEC50/pIC50 and Emax values. Also, the fitting of the proliferation data was done using a three-parameter logistic equation constraining the basal value to 100 and the system maximum to the IMax value obtained for compound 2, since it elicited the maximum inhibition of cellular proliferation in all cell types tested. A one-way ANOVA with Dunnett’s post-test, or Student’s t-test was used to assess the statistical significance for all assays, where p < 0.05 was considered to be significant.

Another experiment has as its system CHO-K1-A2AR cells. The experiment can be described thus: Proliferation assay (CCK-8) in CHO-K1-A2AR cells. Type of experiment: cell-based. The conditions noted are these: for IC50: read-out: pIC50 anti-proliferative effect (converted). As for the experimental part: as §1, §2
Experiment [2] concerns H1792 cells. The experiment can be described thus: Proliferation assay (CCK-8) in H1792 cells. The format is cell-based, human. The conditions noted are these: for Imax anti-proliferative effect: H1792, 10 μM agonist relative to 1% DMSO treatment; for IC50: Homo sapiens, NCI-H1792, H1792, 72 hours, read-out: pIC50 anti-proliferative effect (converted). As for the experimental part:
as §1, §2

Experiment [3] has as its system LK-2 cells. Description: Proliferation assay (CCK-8) in LK-2 cells. The conditions noted are these: for IC50: Homo sapiens, LK-2, 72 hours, read-out: pIC50 anti-proliferative effect (converted). The format is cell-based, human. As for the experimental part: as §1, §2
In experiment [4] the test system is H1563 cells. The experiment can be described thus: Proliferation assay (CCK-8) in H1563 cells. The settings on record: for Imax anti-proliferative effect: H1563, 10 μM agonist relative to 1% DMSO treatment; for IC50: Homo sapiens, NCI-H1563, H1563, 72 hours, read-out: pIC50 anti-proliferative effect (converted). Type of experiment: cell-based, human. As for the experimental part:
as §1, §2

Another experiment deals with CHO-K1 cells. The experiment can be described thus: Proliferation assay (CCK-8) in CHO-K1 cells. Type of experiment: cell-based. The conditions noted are these: for IC50: Cricetulus griseus, CHO-K1, 72 hours, read-out: pIC50 anti-proliferative effect (converted). As for the experimental part:
as §1, §2

Another experiment deals with A2AR. Also on record: method as in ChEMBL. The conditions noted are these: confidence score equal to 9; ref ChEMBL; read-out: IC50 (A2AR antagonist); cited from earlier work.
A further experiment deals with T1, Nluc-A2AR (Homo sapiens, UniProt P29274).
T1 construct: expressed in transfected cells; host or cells: HEK293T
T1 sequence (P29274 whole entry): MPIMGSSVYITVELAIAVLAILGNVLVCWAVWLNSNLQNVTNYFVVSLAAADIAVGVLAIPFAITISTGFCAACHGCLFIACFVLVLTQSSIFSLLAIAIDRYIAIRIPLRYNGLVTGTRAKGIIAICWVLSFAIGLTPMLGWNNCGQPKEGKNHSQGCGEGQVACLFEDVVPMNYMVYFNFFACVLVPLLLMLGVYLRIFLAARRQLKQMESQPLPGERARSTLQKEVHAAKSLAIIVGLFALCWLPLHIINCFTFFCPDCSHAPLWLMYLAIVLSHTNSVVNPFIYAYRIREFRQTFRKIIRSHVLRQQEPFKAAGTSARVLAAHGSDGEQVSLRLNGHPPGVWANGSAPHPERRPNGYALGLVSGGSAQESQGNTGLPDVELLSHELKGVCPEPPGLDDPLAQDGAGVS
The experiment can be described thus: NanoBRET ligand binding assay, competition with CA200645 in HEK293T cells. (In BRET a luciferase serves as donor, and the signal depends on an acceptor being close.)

In experiment [5] the test system is H520 cells. Description: cAMP accumulation in H520 cells. The format is cell-based. The settings on record: Homo sapiens. The text has this: (§3) Fig. 7 Lung squamous cell carcinoma and adenocarcinoma cells display increasing sensitivity to compounds 1, 3–5 in terms of proliferation, dependent upon combined A2AR and PDE10A expression. […] Data represented as a percentage of the cell number present after treatment with 1 % DMSO, ± SEM of 4–8 replicates. (B) Correlation plot for pEC50 of each compounds ability to stimulate cAMP production vs. its pIC50 for inhibiting proliferation. Data represented ± SEM. (C) Proliferation factor (pIC50 x span anti-proliferative Additional file 1: Table S5) calculated for 1, 3–6, CGS21680s and forskolin at LK-2, H520, H1792 and H1563 cells. Bars represent the mean Imax ± SEM, whilst individual data points are shown as a scatter plot.
On the technique in general: Changes in cAMP serve as a functional read-out for many G protein-coupled receptors.

Experiment [6] deals with H1563 cells. The experiment can be described thus: cAMP accumulation in H1563 cells. The format is cell-based. The settings on record: Homo sapiens.
Text: as §3

The next experiment deals with T2, A3R (Homo sapiens, UniProt P0DMS8).
T2 construct: expressed in transfected cells
T2 sequence (P0DMS8 1-318): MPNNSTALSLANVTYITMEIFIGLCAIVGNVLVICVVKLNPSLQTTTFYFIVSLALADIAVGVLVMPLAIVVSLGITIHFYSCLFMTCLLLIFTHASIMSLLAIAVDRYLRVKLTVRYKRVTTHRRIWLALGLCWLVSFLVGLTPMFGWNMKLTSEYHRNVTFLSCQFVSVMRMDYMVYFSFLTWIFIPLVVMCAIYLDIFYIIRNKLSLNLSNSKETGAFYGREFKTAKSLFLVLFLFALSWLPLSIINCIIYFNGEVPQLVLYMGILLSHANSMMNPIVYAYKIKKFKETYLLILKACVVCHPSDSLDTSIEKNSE
Description: cAMP inhibition in CHO-K1-A3R cells co-stimulated with forskolin. The format is cell-based.

The subject of experiment [7] is LK-2 cells. The experiment can be described thus: cAMP accumulation in LK-2 cells. The conditions noted are these: Homo sapiens. The format is cell-based.
Text: as §3

Experiment [8] has as its system H1792 cells. Description: cAMP accumulation in H1792 cells. The format is cell-based. The settings on record: Homo sapiens.
Text: as §3

In a further experiment the target is T3, PDE10A (Homo sapiens, UniProt Q9Y233).
T3 construct: purchased BPS Bioscience, San Diego, CA
T3 sequence (Q9Y233 1-779 isoform Q9Y233-1): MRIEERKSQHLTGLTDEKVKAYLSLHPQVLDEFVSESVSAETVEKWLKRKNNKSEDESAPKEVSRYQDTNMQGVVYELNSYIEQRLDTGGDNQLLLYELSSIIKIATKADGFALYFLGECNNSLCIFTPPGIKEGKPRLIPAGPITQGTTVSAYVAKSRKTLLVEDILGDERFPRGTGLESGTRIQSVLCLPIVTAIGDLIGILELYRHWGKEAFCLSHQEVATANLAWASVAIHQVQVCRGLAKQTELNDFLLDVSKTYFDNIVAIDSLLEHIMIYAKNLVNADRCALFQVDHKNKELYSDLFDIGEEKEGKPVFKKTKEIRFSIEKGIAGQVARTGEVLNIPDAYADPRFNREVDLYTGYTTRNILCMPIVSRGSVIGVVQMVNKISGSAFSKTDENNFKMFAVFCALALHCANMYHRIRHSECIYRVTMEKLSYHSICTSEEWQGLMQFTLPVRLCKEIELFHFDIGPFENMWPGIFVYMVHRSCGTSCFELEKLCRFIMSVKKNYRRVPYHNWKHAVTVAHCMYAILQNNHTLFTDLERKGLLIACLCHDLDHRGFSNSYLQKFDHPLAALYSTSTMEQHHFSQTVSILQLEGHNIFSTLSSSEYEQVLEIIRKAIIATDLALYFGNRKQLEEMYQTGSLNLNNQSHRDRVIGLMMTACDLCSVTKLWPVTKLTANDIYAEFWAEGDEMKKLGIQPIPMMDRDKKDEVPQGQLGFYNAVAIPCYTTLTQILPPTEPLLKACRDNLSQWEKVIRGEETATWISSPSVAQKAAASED
The experiment can be described thus: PDE10A inhibition assay (BPS Bioscience PDE10A assay kit). The format is biochemical. The conditions noted are these: concentration-response at PDE10A. The text has this: 400 pg of purified PDE10A was used per reaction, and the plates were read using a TECAN infinite M200.

Description for Nluc-A2AR: We sought to validate the docking studies by quantifying the affinity of each compound at the A2AR using a NanoBRET binding assay. In this experiment, we used N-terminally tagged A2AR with Nanoluciferase (Nluc) that will emit bioluminescence in close proximity with the fluorescent probe, CA200645, in the presence of Nluc substrate. Firstly, we determine the affinity constant of CA200645 in our expression system. […] We next extended our studies to use a classical competition binding assay ([43, 44]) where non-fluorescent ligands compete for binding at the Nluc-A2AR with CA200645. […] HEK293T cells were seeded in 6-well plates at density of 10^6 cells/well and grown overnight at 37 °C in DMEM/F12 medium supplemented with 10 % FBS and 1 % antibiotic/antimycotic. […]
For association-dissociation kinetic experiments, following furimazine incubation, 40 nM of CA200645 (purchased from Hello Bio, Bristol, UK) was added and the plate was immediately read. […] BRET signal was recorded for either 50 minutes or 20 minutes, for kinetic experiments or competition assay as appropriate, on a Mithras LB940 plate reader allowing sequential integration of signal detected from fluorescent probe CA200645 and Nluc. […] Ligand-induced ΔBRET was used to construct the association-dissociation kinetic of the fluorescence probe and competition binding curve of unlabelled ligands. […]

Take `C=C[C@@]1(C)CC(=O)[C@]2(O)[C@@]3(C)[C@@H](O)CCC(C)(C)[C@@H]3[C@H](O)[C@H](OC(C)=O)[C@@]2(C)O1` [Forskolin]: the Imax anti-proliferative effect with H520 cells [1] is given as 31.2±2.1 %; with CHO-K1-A2AR cells (CHO-K1-A2AR, 10 μM agonist relative to 1% DMSO treatment), 58.96±2.2; with H1792 cells [2] it was 25.9±1.0 %; in the experiment on H1563 cells [4], 29.9±1.1 %; with CHO-K1 cells (CHO-K1, 10 μM agonist relative to 1% DMSO treatment), 62.57±3.4. The IC50 was 85.1 µM in the experiment with H520 cells [1]; 37.2 µM with CHO-K1-A2AR cells (CHO-K1-A2AR, 72 hours); 186 µM with H1792 cells [2]; 324 µM with LK-2 cells [3]; 148 µM in the experiment with H1563 cells [4]; 34.7 µM in the experiment on CHO-K1 cells. In the experiment on CHO-K1-A2AR cells (Imax (CHO-K1-A2AR) - Imax (CHO-K1)), the “Δ Imax” value is -3.61±4.1. The “Δ pIC50” value in the experiment with CHO-K1-A2AR cells (pIC50(CHO-K1-A2AR) - pIC50(CHO-K1)) is listed as -0.03±0.1.
For `COc1ccccc1Cn1cc2nc(-c3ccc(C)o3)nc(N)c2n1` [CHEMBL3799351], the IC50 with A2AR was 0.00435 µM.
Consider CA200645, for which the “disassociation constant (KD) of CA200645 at the Nluc-A2AR” value on Nluc-A2AR (kinetic association then dissociation, 40 nM CA200645, HEK293 cells) was 0.065 µM.
`CCNC(=O)[C@H]1O[C@@H](n2cnc3c(N)nc(NCCc4ccc(CCC(=O)O)cc4)nc32)[C@H](O)[C@@H]1O` [CGS21680]: the EC50 in the experiment with H520 cells [5] (NCI-H520, 0.5 h, H520, 30 minutes, read-out: pEC50 cAMP accumulation (converted)) is 3.31 µM; in the experiment on H1563 cells [6] (NCI-H1563, 0.5 h, H1563, 30 minutes, read-out: pEC50 cAMP accumulation (converted)), 4.57 µM; in the experiment with LK-2 cells [7] (0.5 h, LK-2, 30 minutes, read-out: pEC50 cAMP accumulation (converted)), 14.5 µM; in the experiment on H1792 cells [8] (NCI-H1792, 0.5 h, H1792, 30 minutes, read-out: pEC50 cAMP accumulation (converted)), 3.02 µM. Besides, the Emax was found to be 20.8 ± 1% with H520 cells [5] (NCI-H520, H520, percentage of 100 μM forskolin); 15.6 ± 1.6% in the experiment on H1563 cells [6] (NCI-H1563, H1563, percentage of 100 μM forskolin); 7.64 ± 1.6% with LK-2 cells [7] (LK-2, percentage of 100 μM forskolin); 27.3 ± 2.1% in the experiment on H1792 cells [8] (NCI-H1792, H1792, percentage of 100 μM forskolin). Moreover, the Imax anti-proliferative effect is on record as 0.55±2.0 % in the experiment with H520 cells [1]; -4.07±1.6 % in the experiment on H1792 cells [2]; -3.55±2.6% in the experiment on LK-2 cells [3] (LK-2, 10 μM agonist relative to 1% DMSO treatment); 18.87±1.8 % with H1563 cells [4]. In addition, the IC50 with H520 cells [1] is over 100 µM; in the experiment with CHO-K1-A2AR cells (CHO-K1-A2AR, 72 hours), over 100 µM; with H1792 cells [2] it was over 100 µM; in the experiment on LK-2 cells [3], over 100 µM; in the experiment on H1563 cells [4] it was 214 µM; in the experiment on CHO-K1 cells, over 100 µM. The “A3R functional activity” value at A3R is reported as “agonist activity”. Also, in the experiment on CHO-K1-A2AR cells (CHO-K1 and CHO-K1-A2AR cells, 72 hours, CCK-8), the “anti-proliferative effect” value is listed as “no anti-proliferative effects”. Besides, the “activity at PDE10A” value on PDE10A was “no significant activity”.
Consider `CC(C)NCC(O)c1ccc(O)c(O)c1` (stereo not shown) [isoprenaline], for which the “displacement of CA200645” value at Nluc-A2AR (competition with 300 nM CA200645) was “failed to displace CA200645”.
